Source: the supplement of paper PMC10307832

Columns and labels:
Assay in all cases: relative viability (nuclei count vs DMSO), 5 days (fraction); higher = more cells survive
[1] = tested on: NCI-H1437
Summary of the method: (§1)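 Relative viability is defined as nuclei in treated wells over nuclei in vehicle wells. Duplicate plates were run and medians reported. Lung cancer cell lines in 1536-well plates were dosed by pin tool one day after seeding, with one drug or with a fixed anchor-drug dose plus five library-drug doses (not always all listed) in √10 steps, and nuclei were counted after 5 days.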

[2] = tested on: NCI-H1755
Summary of the method: as §1

[3] = tested on: NCI-H2405
Summary of the method: as §1

[4] = tested on: NCI-H322M
Summary of the method: as §1

[5] = tested on: NCI-H727
Summary of the method: as §1

[6] = tested on: LOU-NH91
Summary of the method: as §1

[7] = tested on: ChaGo-K-1
Summary of the method: as §1

[8] = tested on: ABC-1
Summary of the method: as §1

[9] = tested on: NCI-H2009
Summary of the method: as §1

[10] = tested on: HCC-78
Summary of the method: as §1

[11] = tested on: NCI-H441
Summary of the method: as §1

[12] = tested on: SK-MES-1
Summary of the method: as §1

[13] = tested on: UMC-11
Summary of the method: as §1

[14] = tested on: RERF-LC-KJ
Summary of the method: as §1

[15] = tested on: HOP-62
Summary of the method: as §1

[16] = tested on: NCI-H1355
Summary of the method: as §1

[17] = tested on: NCI-H2085
Summary of the method: as §1

[18] = tested on: NCI-H650
Summary of the method: as §1

[19] = tested on: LCLC-97TM1
Summary of the method: as §1

[20] = tested on: NCI-H2170
Summary of the method: as §1

[21] = tested on: NCI-H2023
Summary of the method: as §1

[22] = tested on: NCI-H23
Summary of the method: as §1

Cc1cnc(-c2cnc(NCCNc3ccc(C#N)cn3)nc2-c2ccc(Cl)cc2Cl)[nH]1 + Cc1cc(Nc2cc(N3CCN(C)CC3)nc(Sc3ccc(NC(=O)C4CC4)cc3)n2)n[nH]1 [Tozasertib] (partner 0.1 µM)
relative viability ([1]; first compound 0.08 µM): 0.456
relative viability ([1]; first compound 0.253 µM): 0.444
relative viability ([1]; first compound 0.8 µM): 0.431
relative viability ([1]; first compound 2.53 µM): 0.371
relative viability ([2]; first compound 0.08 µM): 0.585
relative viability ([2]; first compound 0.253 µM): 0.521
relative viability ([2]; first compound 0.8 µM): 0.595
relative viability ([2]; first compound 2.53 µM): 0.539
relative viability ([3]; first compound 0.08 µM): 0.764
relative viability ([3]; first compound 0.253 µM): 0.697
relative viability ([3]; first compound 0.8 µM): 0.714
relative viability ([3]; first compound 2.53 µM): 0.505
relative viability ([4]; first compound 0.08 µM): 0.51
relative viability ([4]; first compound 0.253 µM): 0.464
relative viability ([4]; first compound 0.8 µM): 0.438
relative viability ([4]; first compound 2.53 µM): 0.466
relative viability ([5]; first compound 0.08 µM): 0.639
relative viability ([5]; first compound 0.253 µM): 0.497
relative viability ([5]; first compound 0.8 µM): 0.603
relative viability ([5]; first compound 2.53 µM): 0.422
relative viability ([6]; first compound 0.08 µM): 0.648
relative viability ([6]; first compound 0.253 µM): 0.605
relative viability ([6]; first compound 0.8 µM): 0.656
relative viability ([6]; first compound 2.53 µM): 0.633
relative viability ([7]; first compound 0.08 µM): 0.241
relative viability ([7]; first compound 0.253 µM): 0.215
relative viability ([7]; first compound 0.8 µM): 0.231
relative viability ([7]; first compound 2.53 µM): 0.22
relative viability ([8]; first compound 0.08 µM): 0.213
relative viability ([8]; first compound 0.253 µM): 0.158
relative viability ([8]; first compound 0.8 µM): 0.22
relative viability ([8]; first compound 2.53 µM): 0.221
relative viability ([9]; first compound 0.08 µM): 0.734
relative viability ([9]; first compound 0.253 µM): 0.695
relative viability ([9]; first compound 0.8 µM): 0.794
relative viability ([9]; first compound 2.53 µM): 0.452
relative viability ([10]; first compound 0.08 µM): 0.482
relative viability ([10]; first compound 0.253 µM): 0.311
relative viability ([10]; first compound 0.8 µM): 0.428
relative viability ([10]; first compound 2.53 µM): 0.384
relative viability ([11]; first compound 0.08 µM): 0.775
relative viability ([11]; first compound 0.253 µM): 0.654
relative viability ([11]; first compound 0.8 µM): 0.602
relative viability ([11]; first compound 2.53 µM): 0.405
relative viability ([12]; first compound 0.08 µM): 0.964
relative viability ([12]; first compound 0.253 µM): 0.854
relative viability ([12]; first compound 0.8 µM): 0.999
relative viability ([12]; first compound 2.53 µM): 0.861
relative viability ([13]; first compound 0.08 µM): 0.19
relative viability ([13]; first compound 0.253 µM): 0.191
relative viability ([13]; first compound 0.8 µM): 0.227
relative viability ([13]; first compound 2.53 µM): 0.213
relative viability ([14]; first compound 0.08 µM): 0.544
relative viability ([14]; first compound 0.253 µM): 0.436
relative viability ([14]; first compound 0.8 µM): 0.367
relative viability ([14]; first compound 2.53 µM): 0.382
relative viability ([15]; first compound 0.08 µM): 0.321
relative viability ([15]; first compound 0.253 µM): 0.353
relative viability ([15]; first compound 0.8 µM): 0.36
relative viability ([15]; first compound 2.53 µM): 0.288
relative viability ([16]; first compound 0.08 µM): 0.662
relative viability ([16]; first compound 0.253 µM): 0.474
relative viability ([16]; first compound 0.8 µM): 0.56
relative viability ([16]; first compound 2.53 µM): 0.374
relative viability ([17]; first compound 0.08 µM): 0.886
relative viability ([17]; first compound 0.253 µM): 0.684
relative viability ([17]; first compound 0.8 µM): 0.56
relative viability ([17]; first compound 2.53 µM): 0.469
relative viability ([18]; first compound 0.08 µM): 0.726
relative viability ([18]; first compound 0.253 µM): 0.746
relative viability ([18]; first compound 0.8 µM): 0.675
relative viability ([18]; first compound 2.53 µM): 0.734
relative viability ([19]; first compound 0.08 µM): 0.224
relative viability ([19]; first compound 0.8 µM): 0.171
relative viability ([19]; first compound 2.53 µM): 0.223
relative viability ([20]; first compound 0.08 µM): 0.73
relative viability ([20]; first compound 0.253 µM): 0.566
relative viability ([20]; first compound 0.8 µM): 0.713
relative viability ([20]; first compound 2.53 µM): 0.699
relative viability ([21]; first compound 0.08 µM): 0.353
relative viability ([21]; first compound 0.253 µM): 0.362
relative viability ([21]; first compound 0.8 µM): 0.325
relative viability ([21]; first compound 2.53 µM): 0.181
relative viability ([22]; first compound 0.08 µM): 0.383
relative viability ([22]; first compound 0.253 µM): 0.26
relative viability ([22]; first compound 0.8 µM): 0.298
relative viability ([22]; first compound 2.53 µM): 0.259
